Data: ChEMBL document CHEMBL4382244, “QSAR of 1,4-benzoxazin-3-one antimicrobials and their drug design perspectives” (2018)
Converted amounts (≈) assume the structure as drawn.

Key:
Type in all cases: functional
Candida albicans [1] = assay: Antifungal activity against Candida albicans after 24 hrs by disk diffusion method
Candida albicans [2] = assay: Antifungal activity against Candida albicans after 24 hrs by spectrophotometric method
Escherichia coli [3] = assay: Antibacterial activity against Escherichia coli ATCC 25922 after 24 hrs by disk diffusion method; details: ATCC 25922, 24 h
Staphylococcus aureus [4] = assay: Antibacterial activity against Staphylococcus aureus ATCC 25923 after 24 hrs by disk diffusion method; details: ATCC 25923, 24 h
Staphylococcus aureus [5] = assay: Antibacterial activity against Staphylococcus aureus
Candida albicans [6] = assay: Antifungal activity against Candida albicans
Enterococcus faecalis = assay: Antibacterial activity against Enterococcus faecalis ATCC 29212 after 16 to 20 hrs by microdilution method
Klebsiella pneumoniae = assay: Antibacterial activity against Klebsiella pneumoniae RSKK 576 after 16 to 20 hrs by microdilution method
Pseudomonas aeruginosa [7] = assay: Antibacterial activity against Pseudomonas aeruginosa ATCC 10145 after 16 to 20 hrs by microdilution method
Staphylococcus aureus [8] = assay: Antibacterial activity against Staphylococcus aureus ATCC 29213 after 16 to 20 hrs by microdilution method
Bacillus subtilis = assay: Antibacterial activity against Bacillus subtilis
Escherichia coli [9] = assay: Antibacterial activity against Escherichia coli
Escherichia coli [10] = assay: Antibacterial activity against Escherichia coli ATCC 25922 after 16 to 20 hrs by microdilution method
Pseudomonas aeruginosa [11] = assay: Antibacterial activity against Pseudomonas aeruginosa
Candida albicans [12] = assay: Antifungal activity against Candida albicans CA-6 by micro-dilution method
Saccharomyces cerevisiae = assay: Antifungal activity against Saccharomyces cerevisiae ATCC 9763 by micro-dilution method
Pichia kudriavzevii = assay: Antifungal activity against Candida krusei ATCC 6258 by micro-dilution method

| SMILES | MIC (Candida albicans [1]) [µM] | MIC (Candida albicans [2]) [µM] | MIC (Staphylococcus aureus [4]) [µM] | MIC (Enterococcus faecalis) [µM] | MIC (Klebsiella pneumoniae) [µM] | MIC (Pseudomonas aeruginosa [7]) [µM] | MIC (Staphylococcus aureus [8]) [µM] | MIC (Escherichia coli [10]) [µM] | further results |
| --- | --- | --- | --- | --- | --- | --- | --- | --- | --- |
| O=C1COc2ccccc2N1O | 2020 (≈ 333 µg/mL) | 2120 (≈ 350 µg/mL) | 2020 (≈ 333 µg/mL) |  |  |  |  |  | MIC (Escherichia coli [3]): 7570 µM (≈ 1250 µg/mL) |
| COc1ccc2c(c1)OC(O)C(=O)N2O (stereo not given) | 2370 (≈ 500 µg/mL) | 2370 (≈ 500 µg/mL) | 1580 (≈ 333 µg/mL) |  |  |  |  |  | MIC (Escherichia coli [3]): 3150 µM (≈ 666 µg/mL) |
| COc1ccc2c(c1)OCC(=O)N2O | 850 (≈ 166 µg/mL) | 768 (≈ 150 µg/mL) | 3410 (≈ 666 µg/mL) |  |  |  |  |  | MIC (Escherichia coli [3]): 6400 µM (≈ 1250 µg/mL) |
| COC1Oc2ccccc2N(O)C1=O (stereo not given) | 3410 (≈ 666 µg/mL) | 3330 (≈ 650 µg/mL) | 2560 (≈ 500 µg/mL) |  |  |  |  |  |  |
| CCOC(=O)CC1Oc2ccc(C)cc2NC1=O (stereo not given) |  |  |  | 457 (≈ 114 µg/mL) | 457 (≈ 114 µg/mL) | 457 (≈ 114 µg/mL) | 914 (≈ 228 µg/mL) | 457 (≈ 114 µg/mL) | MIC (Staphylococcus aureus [5]): 89.2 µM (≈ 22.2 µg/mL); MIC (Candida albicans [6]): 89.2 µM (≈ 22.2 µg/mL); MIC (Bacillus subtilis): 89.2 µM (≈ 22.2 µg/mL); MIC (Escherichia coli [9]): 89.2 µM (≈ 22.2 µg/mL); MIC (Pseudomonas aeruginosa [11]): 178 µM (≈ 44.5 µg/mL) |
| N#Cc1ccc2c(c1)OC(O)C(=O)N2O (stereo not given) | 7280 (≈ 1500 µg/mL) |  | 7280 (≈ 1500 µg/mL) |  |  |  |  |  |  |
| CCOC(=O)CC1Oc2cc([N+](=O)[O-])ccc2NC1=O (stereo not given) |  |  |  |  |  |  |  |  | MIC (Staphylococcus aureus [5]): 121 µM (≈ 33.8 µg/mL); MIC (Candida albicans [6]): 121 µM (≈ 33.8 µg/mL); MIC (Bacillus subtilis): 241 µM (≈ 67.6 µg/mL); MIC (Escherichia coli [9]): 241 µM (≈ 67.6 µg/mL); MIC (Pseudomonas aeruginosa [11]): 121 µM (≈ 33.8 µg/mL) |
| CCOC(=O)CC1Oc2cccc([N+](=O)[O-])c2NC1=O (stereo not given) |  |  |  | 457 (≈ 128 µg/mL) | 457 (≈ 128 µg/mL) | 457 (≈ 128 µg/mL) | 914 (≈ 256 µg/mL) | 457 (≈ 128 µg/mL) |  |
| CCOC(=O)CC1Oc2ccc(C(O)Cn3ccnc3)cc2N(C)C1=O (stereo not given) |  |  |  |  |  |  |  |  | MIC (Candida albicans [12]): 39.2 µM (≈ 14.1 µg/mL); MIC (Saccharomyces cerevisiae): 19.6 µM (≈ 7.04 µg/mL); MIC (Pichia kudriavzevii): 39.2 µM (≈ 14.1 µg/mL) |
| CCOC(=O)CC1Oc2cccc(C)c2NC1=O (stereo not given) |  |  |  | 1030 (≈ 256 µg/mL) | 1030 (≈ 256 µg/mL) | 1030 (≈ 256 µg/mL) | 1030 (≈ 256 µg/mL) | 1030 (≈ 256 µg/mL) |  |
| CCOC(=O)CC1Oc2cc(N)ccc2NC1=O (stereo not given) |  |  |  | 1030 (≈ 257 µg/mL) | 1030 (≈ 257 µg/mL) | 1030 (≈ 257 µg/mL) | 1030 (≈ 257 µg/mL) | 1030 (≈ 257 µg/mL) | MIC (Staphylococcus aureus [5]): 201 µM (≈ 50.2 µg/mL); MIC (Candida albicans [6]): 100 µM (≈ 25.1 µg/mL); MIC (Bacillus subtilis): 201 µM (≈ 50.2 µg/mL); MIC (Escherichia coli [9]): 201 µM (≈ 50.2 µg/mL); MIC (Pseudomonas aeruginosa [11]): 201 µM (≈ 50.2 µg/mL) |
| O=C(O)CC1Oc2ccccc2NC1=O (stereo not given) |  |  |  | 1090 (≈ 225 µg/mL) | 1090 (≈ 225 µg/mL) | 544 (≈ 113 µg/mL) | 1090 (≈ 225 µg/mL) | 1090 (≈ 225 µg/mL) | MIC (Staphylococcus aureus [5]): 106 µM (≈ 22 µg/mL); MIC (Candida albicans [6]): 106 µM (≈ 22 µg/mL); MIC (Bacillus subtilis): 212 µM (≈ 44 µg/mL); MIC (Escherichia coli [9]): 212 µM (≈ 44 µg/mL); MIC (Pseudomonas aeruginosa [11]): 212 µM (≈ 44 µg/mL) |
| CCOC(=O)CC1Oc2cc(C)ccc2NC1=O (stereo not given) |  |  |  |  |  |  |  |  | MIC (Staphylococcus aureus [5]): 303 µM (≈ 75.5 µg/mL); MIC (Bacillus subtilis): 303 µM (≈ 75.5 µg/mL); MIC (Escherichia coli [9]): 151 µM (≈ 37.7 µg/mL); MIC (Pseudomonas aeruginosa [11]): 151 µM (≈ 37.7 µg/mL) |
| COc1ccc2c(c1)OC(O)C(=O)N2 (stereo not given) |  | 5120 (≈ 1000 µg/mL) |  |  |  |  |  |  |  |
| CCOC(=O)CC1Oc2ccc(Cl)cc2NC1=O (stereo not given) |  |  |  | 949 to 1030 (≈ 256 to 277 µg/mL) | 949 to 1030 (≈ 256 to 277 µg/mL) | 949 to 1030 (≈ 256 to 277 µg/mL) | 949 to 1030 (≈ 256 to 277 µg/mL) | 949 to 1030 (≈ 256 to 277 µg/mL) | MIC (Staphylococcus aureus [5]): 201 µM (≈ 54.1 µg/mL); MIC (Candida albicans [6]): 100 µM (≈ 27 µg/mL); MIC (Bacillus subtilis): 201 µM (≈ 54.1 µg/mL); MIC (Escherichia coli [9]): 100 µM (≈ 27 µg/mL); MIC (Pseudomonas aeruginosa [11]): 100 µM (≈ 27 µg/mL) |
| CCOC(=O)CC1Oc2ccc(C(=O)OCC)cc2NC1=O (stereo not given) |  |  |  | 407 (≈ 125 µg/mL) | 407 (≈ 125 µg/mL) | 407 (≈ 125 µg/mL) | 814 (≈ 250 µg/mL) | 407 (≈ 125 µg/mL) | MIC (Staphylococcus aureus [5]): 159 µM (≈ 48.8 µg/mL); MIC (Candida albicans [6]): 39.7 µM (≈ 12.2 µg/mL); MIC (Bacillus subtilis): 79.4 µM (≈ 24.4 µg/mL); MIC (Escherichia coli [9]): 79.4 µM (≈ 24.4 µg/mL); MIC (Pseudomonas aeruginosa [11]): 159 µM (≈ 48.8 µg/mL) |

| SMILES | MIC (Candida albicans [1]) [µM] | MIC (Candida albicans [2]) [µM] | MIC (Staphylococcus aureus [4]) [µM] | MIC (Enterococcus faecalis) [µM] | MIC (Klebsiella pneumoniae) [µM] | MIC (Pseudomonas aeruginosa [7]) [µM] | MIC (Staphylococcus aureus [8]) [µM] | MIC (Escherichia coli [10]) [µM] | further results |
| --- | --- | --- | --- | --- | --- | --- | --- | --- | --- |
| CCOC(=O)CC1Oc2ccc(F)cc2NC1=O (stereo not given) |  |  |  | 1010 (≈ 256 µg/mL) | 1010 (≈ 256 µg/mL) | 1010 (≈ 256 µg/mL) | 1010 (≈ 256 µg/mL) | 1010 (≈ 256 µg/mL) |  |
| COC(=O)c1ccc2c(c1)OC(O)C(=O)N2 (stereo not given) |  | 4480 (≈ 1000 µg/mL) |  |  |  |  |  |  |  |
| Cc1ccc2c(c1)OCC(=O)N2O | 1860 (≈ 333 µg/mL) | 1950 (≈ 350 µg/mL) | 1860 (≈ 333 µg/mL) |  |  |  |  |  | MIC (Escherichia coli [3]): 2790 µM (≈ 500 µg/mL) |
| Cc1ccc2c(c1)OC(O)C(=O)N2O (stereo not given) | 3410 (≈ 666 µg/mL) |  | 2560 (≈ 500 µg/mL) |  |  |  |  |  | MIC (Escherichia coli [3]): 3410 µM (≈ 666 µg/mL) |
| O=C1C(O)Oc2cc([N+](=O)[O-])ccc2N1O (stereo not given) | 6630 (≈ 1500 µg/mL) |  | 734 (≈ 166 µg/mL) |  |  |  |  |  | MIC (Escherichia coli [3]): 3680 µM (≈ 833 µg/mL) |
| CCOC(=O)CC1Oc2ccc(-c3ccccc3)cc2NC1=O (stereo not given) |  |  |  | 206 (≈ 64 µg/mL) | 411 (≈ 128 µg/mL) | 411 (≈ 128 µg/mL) | 411 (≈ 128 µg/mL) | 411 (≈ 128 µg/mL) |  |
| CC(=O)ON1C(=O)C(O)Oc2ccccc21 (stereo not given) |  | 2980 (≈ 666 µg/mL) |  |  |  |  |  |  |  |
| CCOC(=O)CC1Oc2ccc(S(=O)(=O)CC)cc2NC1=O (stereo not given) |  |  |  | 391 (≈ 128 µg/mL) | 391 (≈ 128 µg/mL) | 391 (≈ 128 µg/mL) | 782 (≈ 256 µg/mL) | 391 (≈ 128 µg/mL) |  |
| CCOC(=O)CC1Oc2ccc(C(Cn3ccnc3)OCc3ccc(Cl)cc3)cc2N(C)C1=O (stereo not given) |  |  |  |  |  |  |  |  | MIC (Candida albicans [12]): 915 µM (≈ 443 µg/mL); MIC (Saccharomyces cerevisiae): 915 µM (≈ 443 µg/mL); MIC (Pichia kudriavzevii): 114 µM (≈ 55.3 µg/mL) |
| CCOC(=O)CC1Oc2cc([N+](=O)[O-])ccc2N(C)C1=O (stereo not given) |  |  |  | 949 (≈ 279 µg/mL) | 949 (≈ 279 µg/mL) | 949 (≈ 279 µg/mL) | 949 (≈ 279 µg/mL) | 949 (≈ 279 µg/mL) | MIC (Staphylococcus aureus [5]): 185 µM (≈ 54.6 µg/mL); MIC (Candida albicans [6]): 46.4 µM (≈ 13.7 µg/mL); MIC (Bacillus subtilis): 185 µM (≈ 54.6 µg/mL); MIC (Escherichia coli [9]): 92.7 µM (≈ 27.3 µg/mL); MIC (Pseudomonas aeruginosa [11]): 92.7 µM (≈ 27.3 µg/mL) |
| CCOC(=O)CC1Oc2ccc([N+](=O)[O-])cc2NC1=O (stereo not given) |  |  |  | 457 (≈ 128 µg/mL) | 457 (≈ 128 µg/mL) | 457 (≈ 128 µg/mL) | 914 (≈ 256 µg/mL) | 457 (≈ 128 µg/mL) |  |
| O=C1COc2ccccc2N1 |  | 6700 (≈ 1000 µg/mL) |  |  |  |  |  |  |  |
| O=C1C(O)Oc2ccccc2N1O (stereo not given) | 3680 (≈ 666 µg/mL) | 3680 (≈ 666 µg/mL) | 2760 (≈ 500 µg/mL) |  |  |  |  |  | MIC (Escherichia coli [3]): 6900 µM (≈ 1250 µg/mL) |
| O=C1COc2cc(F)ccc2N1O [7-F-D-DIBOA] | 2730 (≈ 500 µg/mL) | 2730 (≈ 500 µg/mL) | 1820 (≈ 333 µg/mL) |  |  |  |  |  | MIC (Escherichia coli [3]): 4550 µM (≈ 833 µg/mL) |
| COC(=O)c1ccc2c(c1)OCC(=O)N2O [7-MeOCO-D-DIBOA] |  |  | 4480 (≈ 1000 µg/mL) |  |  |  |  |  |  |
